Square brackets hold non-standard residues; d marks the D form. Peptide text beside a SMILES is read from it. Dolaproine = CO[C@@H]([C@@H]1CCCN1)[C@@H](C)C(=O)O; Dil = CC[C@H](C)[C@H](NC)[C@@H](CC(=O)O)OC; 2Thi = N[C@@H](Cc1cccs1)C(=O)O; NMeV = CN[C@H](C(=O)O)C(C)C
Tests used:
A549 tumor cells = experiment: In vitro tumor cell proliferation inhibition test (CCK-8), A549; format: cell-based; settings: Homo sapiens, A549, 76 hours incubation
Procedure: (§1) The objective of this experiment is to test the in vitro inhibition effect of the formula (D) according to the present invention on the proliferation of HepG2 tumor cells (human hepatocellular carcinoma cells, Chinese Academy of Sciences cell bank, No. #TCHu 72) and A549 tumor cells (human lung adenocarcinoma, Chinese Academy of Sciences cell bank, No. #TCHu150). The cells were treated with different concentrations of the compound in vitro. After 76 hours incubation, the cell proliferation was detected by CCK-8 reagent (Cell Counting Kit-8, Dojindo, No. CK04), and the activity of the compound in vitro was evaluated according to the IC50 value.
(§2) The following is an example of a method for in vitro proliferation inhibition test of HepG2 cells for the purpose of exemplifying the test of the compounds according to the present invention for the proliferation inhibitory activity on tumor cells in vitro. This method is also applicable to, but not limited to, the in vitro proliferation inhibition tests on other tumor cells.
(§3) The compound was dissolved with DMSO (dimethylsulfoxide, Shanghai Titan Technology Co., Ltd.) to prepare a storage solution having an initial concentration of 10 mM.
(§4) 10 μl of 10 mM compound was added to the wells of the first column of a U-shaped bottom 96-well plate (sample plate 1), and 90 μl of DMSO was added to each compound sample well of the first column, i.e., the stock solution was diluted 10 times as the starting point. Then, 3-fold gradient dilutions were performed, with each compound concentration […]. The diluent was DMSO solution. 60 μl of 100% DMSO was added to 12th column and 20 μl of 1 mM positive drug control was added to 11th column.
(§5) In a new U-shaped bottom 96-well plate (sample plate 2), each sample from the sample plate 1 was diluted 20 times with the complete medium. Then, in another new U-shaped bottom 96-well plate (sample plate 3), each well sample from the sample plate 2 was subjected to a final 10-fold dilution.
(§6) After the cell pre-culture was completed, the 96-well cell culture plate was removed and the supernatant was discarded. Each sample dilution in the 96-well sample plate 3 was successively added to a 96-well cell culture plate at 100 μl/well. Each compound sample was tested in duplicate at each concentration. […] After completion of the loading operation, the 96-well cell culture plate was incubated at 37° C. for about 76 hours in a 5% CO2 incubator.
(§7) The 96-well cell culture plate was taken and CCK-8 was added to each well at […]. The cell culture plate was gently pat and mixed for more than 10 times and incubated at 37° C. for 2 hours in a 5% CO2 incubator.
(§8) The 96-well cell culture plate was taken and placed in a microplate reader (PerkinElmer, VICTOR 3) and the absorbance at 450 nm was measured using the microplate reader.
In accordance with the above procedure, the inhibition activity of the compound according to the present invention on the proliferation of A549 tumor cells in vitro was tested. The cell culture medium was also DMEM/F12.
(§9) Data was analyzed with Microsoft Excel and Graphpad Prism 5.

HepG2 tumor cells = experiment: In vitro tumor cell proliferation inhibition test (CCK-8), HepG2; format: cell-based; settings: Homo sapiens, HepG2, 76 hours incubation
Procedure: as §1, §2
HepG2 cells in logarithmic growth phase were washed with PBS (phosphate buffer, ThermoFisher) once, and added with 2-3 ml trypsin (0.25% trypsin-EDTA (1×), Gibico, Life Technologies) to digest for 2-3 min. Then, 10-15 ml of cell culture medium (DMEM/F12 medium, Invitrogen; 10% (v/v)) was added after the cells were completely digested. The digested HepG2 cells were eluted, and centrifuged at 1000 rpm for 3 min. The supernatant was discarded, and then 10-20 ml of cell culture medium were added to resuspend the cells to prepare a single cell suspension.
The HepG2 single cell suspension was mixed and the cell density was adjusted to 6×10^4 cells/ml with cell culture medium. The density-adjusted cell suspension was mixed uniformly and added to a 96-well cell culture plate at 100 μl/well. The plates were incubated in a 5% CO2 incubator at 37° C. for 18-20 hours.
as §3, §4, §5, §6, §7, §8, §9

[1] = system: NCI-N87 cells (HER2 overexpressing human gastric cancer cells); experiment: Tumor inhibition rate test of NCI-N87 transplanted tumor in nude mice; format: in vivo; settings: 60 mg/kg (first dose doubling), IV
Text: To evaluate and compare the effect of antibody-cytotoxin conjugates according to the present invention on transplanted tumors of NCI-N87 cells (HER2 overexpressing human gastric cancer cells, ATCC, CRL-5822) in nude mice. […] Preparation method: all prepared with physiological saline. […] Feeding environment: SPF level. […] T/C (%)=(T−T0)/(C−C0)×100%, wherein T and C represent the tumor volume at the end of the experiment; T0 and C0 represent the tumor volume at the beginning of the experiment. […] The number of mice at the beginning of the experiment was as follows: Control group n=12, Treatment group n=6.

CC[C@H](C)[C@@H]([C@@H](CC(=O)N1CCC[C@H]1[C@H](OC)[C@@H](C)C(=O)N[C@@H](Cc1cccs1)C(=O)O)OC)N(C)C(=O)[C@@H](NC(=O)[C@@H](NC)C(C)C)C(C)C [Compound 35, (S)-2-((2R,3R)-3-((S)-1-((3R,4S,5S)-4-((S)—N,3-dimethyl-2-((S)-3-methyl-2-(methylamino)butanamido)butanamido)-3-methoxy-5-methylheptanoyl)pyrrolidin-2-yl)-3-methoxy-2-methylpropanamido)-3-(thiophen-2-yl)propanoic acid] (H-[NMeV]V[Dil][Dolaproine][2Thi]-OH)
IC50 (A549 tumor cells): 18 nM
IC50 (HepG2 tumor cells): 30.6 nM

Pertuzumab
Mean tumor volume (mm^3) D0 ([1]; D0, 7, D0 = time of first administration): 115.5 mm^3
% T/C D21 ([1]; D0, 7, D21): 42%
% tumor inhibition rate D21 ([1]; D0, 7, D21): 58%
Mean tumor volume (mm^3) D21 ([1]; D0, 7, D21): 380.1 mm^3

— patent publication US20180177890A1, “LIGAND-CYTOTOXIC DRUG CONJUGATE, PREPARATION METHOD THEREOF, AND USE THEREOF” (priority 2015, published 2018)
